Reference: ChEMBL document CHEMBL1255421, “In vitro fungicidal activities of echinocandins against Candida metapsilosis, C. orthopsilosis, and C. parapsilosis evaluated by time-kill studies” (2010)
Activity calls are given as the source filed them. The rule behind the calls is not given here. Numbered stars: 1 amine (or outer) side, 2 acyl side, 3 side chain; on linkers, the order of the positions; unused ones are H or OH. Bridge positions count the residues as written; N and C are the ends. Square brackets hold non-standard residues; d marks the D form. Peptide text beside a SMILES is read from it. * marks the point of attachment. hTyr(3S-OH,4S-OH,3'-OSO3H) = N[C@H](C(=O)O)[C@H](O)[C@@H](O)c1ccc(O)c(OS(=O)(=O)O)c1; pTerphenylCO(4''-OnC5H11) = CCCCCOc1ccc(-c2ccc(-c3ccc(C(=O)*)cc3)cc2)cc1; Orn(4R-OH,5R-OH) = O=C([C@H](C[C@@H](O)[C@@H](O)N[*:3])N[*:1])[*:2]; hTyr(3S-OH,4S-OH) = N[C@H](C(=O)O)[C@H](O)[C@@H](O)c1ccc(O)cc1; Pro(3S-OH,4S-Me) = C[C@H]1CN[C@H](C(=O)O)[C@H]1O; X1 = CCCCCOc1ccc(-c2cc(-c3ccc(C(=O)*)cc3)no2)cc1; Gln(3R-OH) = NC(=O)C[C@@H](O)[C@H](N)C(=O)O; Hyp = O=C(O)[C@@H]1C[C@@H](O)CN1

Legend:
Candida metapsilosis [1] = test: Antifungal activity against Candida metapsilosis clinical isolate bloodstream form assessed as induction of miniparadoxical effect at 32 mg/L after 48 hrs by time-kill assay; type: functional, organism-based
Candida orthopsilosis [2] = test: Antifungal activity against Candida orthopsilosis clinical isolate bloodstream form assessed as induction of miniparadoxical effect at 16 mg/L after 48 hrs by time-kill assay; type: functional, organism-based
Candida metapsilosis [3] = test: Antifungal activity against Candida metapsilosis clinical isolate bloodstream form assessed as induction of maximal fungal death at 16 mg/L after 48 hrs by time-kill assay; type: functional, organism-based
Candida parapsilosis = test: Antifungal activity against Candida parapsilosis clinical isolate bloodstream form assessed as minimum concentration required for => 3-log decrease in fungal growth after 12 to 48 hrs by time-kill assay; type: functional
Candida metapsilosis [4] = test: Antifungal activity against Candida metapsilosis clinical isolate bloodstream form assessed as minimum concentration required for => 3-log decrease in fungal growth after 12 to 48 hrs by time-kill assay; type: functional
Candida orthopsilosis [5] = test: Antifungal activity against Candida orthopsilosis clinical isolate bloodstream form assessed as minimum concentration required for => 3-log decrease in fungal growth after 12 to 48 hrs by time-kill assay; type: functional
Candida metapsilosis [6] = test: Antifungal activity against Candida metapsilosis clinical isolate bloodstream form assessed as induction of maximal fungal death at 32 mg/L after 48 hrs by time-kill assay; type: functional, organism-based

CCCCCOc1ccc(-c2ccc(-c3ccc(C(=O)N[C@H]4C[C@@H](O)[C@@H](O)NC(=O)[C@@H]5[C@@H](O)[C@@H](C)CN5C(=O)[C@H]([C@@H](C)O)NC(=O)[C@H]([C@H](O)[C@@H](O)c5ccc(O)cc5)NC(=O)[C@@H]5C[C@@H](O)CN5C(=O)[C@H]([C@@H](C)O)NC4=O)cc3)cc2)cc1 [ANIDULAFUNGIN] ({pTerphenylCO(4''-OnC5H11)}-[Orn(4R-OH,5R-OH)]T[Hyp][hTyr(3S-OH,4S-OH)]T[Pro(3S-OH,4S-Me)]; lactam 1-C)
Activity (Candida metapsilosis [1]): inactive

CC[C@H](C)C[C@H](C)CCCCCCCCC(=O)N[C@H]1C[C@@H](O)[C@@H](NCCN)NC(=O)[C@@H]2[C@@H](O)CCN2C(=O)[C@H]([C@H](O)CCN)NC(=O)[C@H]([C@H](O)[C@@H](O)c2ccc(O)cc2)NC(=O)[C@@H]2C[C@@H](O)CN2C(=O)[C@H]([C@@H](C)O)NC1=O [CASPOFUNGIN]
Activity (Candida orthopsilosis [2]): Active | Activity (Candida metapsilosis [3]): Active | MED (Candida parapsilosis): 14 mg/L | MED (Candida metapsilosis [4]): 14 mg/L | MED (Candida orthopsilosis [5]): 14 mg/L

CCCCCOc1ccc(-c2cc(-c3ccc(C(=O)N[C@H]4C[C@@H](O)[C@@H](O)NC(=O)[C@@H]5[C@@H](O)[C@@H](C)CN5C(=O)[C@H]([C@H](O)CC(N)=O)NC(=O)[C@H]([C@H](O)[C@@H](O)c5ccc(O)c(OS(=O)(=O)O)c5)NC(=O)[C@@H]5C[C@@H](O)CN5C(=O)[C@H]([C@@H](C)O)NC4=O)cc3)no2)cc1 [MICAFUNGIN] (X1-[Orn(4R-OH,5R-OH)]T[Hyp][hTyr(3S-OH,4S-OH,3'-OSO3H)][Gln(3R-OH)][Pro(3S-OH,4S-Me)]; lactam 1-C)
Activity (Candida metapsilosis [6]): Active
